Results reported in ChEMBL document CHEMBL5537158, “Polymyxins with Potent Antibacterial Activity against Colistin-Resistant Pathogens: Fine-Tuning Hydrophobicity with Unnatural Amino Acids” (J Med Chem, 2024).
Values after ≈ are worked out from the molar mass of the structure shown. Active and inactive are the calls of the source. The rule behind the calls is not given here. Positions of bridges follow the written chain, without caps; N, C: chain ends. Non-standard residues stand in square brackets, D forms with d. Residues, ends and D or L forms follow the SMILES beside them. *: point of attachment. Benzoyl(4-Ph) = O=C(c1ccc(-c2ccccc2)cc1)*; dPhe(4-Cl) = N[C@H](Cc1ccc(Cl)cc1)C(=O)O; Gly(octyl) = CCCCCCCC[C@H](N)C(=O)O; Octanoyl = CCCCCCCC(=O)*; Dab = NCC[C@H](N)C(=O)O

What was measured:
[1] = system: Klebsiella pneumoniae; assay: Antimicrobial activity against colistin resistant Klebsiella pneumoniae ATCC 13883 assessed as bacterial growth inhibition incubated for 20 hrs by broth microdilution method; type: functional
[2] = system: Klebsiella pneumoniae; assay: Antimicrobial activity against colistin resistant Klebsiella pneumoniae clinical isolate 3 assessed as bacterial growth inhibition incubated for 20 hrs by broth microdilution method; type: functional
[3] = system: Escherichia coli; assay: Antibacterial activity against […] Escherichia coli clinical isolate 3 assessed as bacterial growth inhibition incubated for 20 hrs by broth microdilution method; type: functional
[4] = system: Acinetobacter baumannii; assay: Antimicrobial activity against Acinetobacter baumannii ATCC 19606 assessed as bacterial growth inhibition incubated for 20 hrs by broth microdilution method; type: functional
[5] = system: Klebsiella pneumoniae; assay: Antimicrobial activity against Klebsiella pneumoniae ATCC 13883 assessed as bacterial growth inhibition incubated for 20 hrs by broth microdilution method; type: functional
[6] = system: Klebsiella pneumoniae; assay: Antimicrobial activity against colistin resistant Klebsiella pneumoniae clinical isolate 2 assessed as bacterial growth inhibition incubated for 20 hrs by broth microdilution method; type: functional
[7] = system: Pseudomonas aeruginosa; assay: Antimicrobial activity against colistin resistant Pseudomonas aeruginosa 7197/19 assessed as bacterial growth inhibition incubated for 20 hrs by broth microdilution method; type: functional
[8] = system: Acinetobacter baumannii; assay: Antimicrobial activity against colistin resistant Acinetobacter baumannii clinical isolate 3 assessed as bacterial growth inhibition incubated for 20 hrs by broth microdilution method; type: functional
[9] = system: Escherichia coli; assay: Antibacterial activity against […] Escherichia coli clinical isolate 2 assessed as bacterial growth inhibition incubated for 20 hrs by broth microdilution method; type: functional
[10] = system: Escherichia coli; assay: Antibacterial activity against […] Escherichia coli ATCC 25922 assessed as bacterial growth inhibition incubated for 20 hrs by broth microdilution method; type: functional
[11] = system: Escherichia coli; assay: Antibacterial activity against […] Escherichia coli clinical isolate 1 assessed as bacterial growth inhibition incubated for 20 hrs by broth microdilution method; type: functional
[12] = system: Acinetobacter baumannii; assay: Antimicrobial activity against colistin resistant Acinetobacter baumannii clinical isolate 1 assessed as bacterial growth inhibition incubated for 20 hrs by broth microdilution method; type: functional
[13] = system: Klebsiella pneumoniae; assay: Antimicrobial activity against colistin resistant Klebsiella pneumoniae clinical isolate 4 assessed as bacterial growth inhibition incubated for 20 hrs by broth microdilution method; type: functional
[14] = system: Escherichia coli; assay: Antibacterial activity against Escherichia coli ATCC 25922 assessed as bacterial growth inhibition incubated for 20 hrs by broth microdilution method; type: functional
[15] = system: Pseudomonas aeruginosa; assay: Antimicrobial activity against Pseudomonas aeruginosa PAO1 assessed as bacterial growth inhibition incubated for 20 hrs by broth microdilution method; type: functional
[16] = system: Cell membrane; assay: Induction of membrane destabilization in Escherichia coli MG1655 assessed as SYTOX uptake at 2 times MIC measured every 5 mins for 120 mins by microplate reader assay; type: cell membranes
[17] = system: Klebsiella pneumoniae; assay: Antimicrobial activity against colistin resistant Klebsiella pneumoniae clinical isolate 1 assessed as bacterial growth inhibition incubated for 20 hrs by broth microdilution method; type: functional
[18] = system: Acinetobacter baumannii; assay: Antimicrobial activity against colistin resistant Acinetobacter baumannii ATCC 3658/17 assessed as bacterial growth inhibition incubated for 20 hrs by broth microdilution method; type: functional
[19] = system: Pseudomonas aeruginosa; assay: Antimicrobial activity against colistin resistant Pseudomonas aeruginosa clinical isolate 1 assessed as bacterial growth inhibition incubated for 20 hrs by broth microdilution method; type: functional
[20] = system: Acinetobacter baumannii; assay: Antimicrobial activity against colistin resistant Acinetobacter baumannii clinical isolate 4 assessed as bacterial growth inhibition incubated for 20 hrs by broth microdilution method; type: functional
[21] = system: Pseudomonas aeruginosa; assay: Potency index, ratio of polymyxin B MIC to test compound MIC for antibacterial activity against colistin resistant Pseudomonas aeruginosa clinical isolate 1; type: functional
[22] = system: Escherichia coli; assay: Antimicrobial activity against […] Escherichia coli harboring mcr-1 assessed as bacterial growth inhibition incubated for 20 hrs by broth microdilution method; type: functional
[23] = system: Pseudomonas aeruginosa; assay: Antimicrobial activity against Pseudomonas aeruginosa ATCC 27853 assessed as bacterial growth inhibition incubated for 20 hrs by broth microdilution method; type: functional
[24] = system: Klebsiella pneumoniae; assay: Antimicrobial activity against colistin resistant Klebsiella pneumoniae clinical isolate 6 assessed as bacterial growth inhibition incubated for 20 hrs by broth microdilution method; type: functional
[25] = system: Acinetobacter baumannii; assay: Antimicrobial activity against colistin resistant Acinetobacter baumannii ATCC 19606 assessed as bacterial growth inhibition incubated for 20 hrs by broth microdilution method; type: functional
[26] = system: Klebsiella pneumoniae; assay: Antimicrobial activity against colistin resistant Klebsiella pneumoniae clinical isolate 5 assessed as bacterial growth inhibition incubated for 20 hrs by broth microdilution method; type: functional
[27] = system: Pseudomonas aeruginosa; assay: Potency index, ratio of colistin MIC to test compound MIC for antibacterial activity against colistin resistant Pseudomonas aeruginosa clinical isolate 1; type: functional

CCCCCCCC[C@@H]1NC(=O)[C@@H](Cc2ccccc2)NC(=O)[C@H](CCN)NC(=O)[C@@H](NC(=O)[C@H](CCN)NC(=O)[C@@H](NC(=O)[C@H](CCN)NC(=O)CCCCCCC)[C@@H](C)O)CCNC(=O)[C@H]([C@@H](C)O)NC(=O)[C@H](CCN)NC(=O)[C@H](CCN)NC1=O (Octanoyl-[Dab]T[Dab][Dab][Dab][dF][Gly(octyl)][Dab][Dab]T; lactam 4-C) showed an MIC [1] of 16 µg/mL (≈ 12.8 µM), an MIC [2] of 16 µg/mL (≈ 12.8 µM) and an MIC [3] of 4 µg/mL (≈ 3.21 µM). The MIC [4] was 0.25 µg/mL (≈ 0.201 µM), the MIC [5] was 0.25 µg/mL (≈ 0.201 µM) and the MIC [6] was 16 µg/mL (≈ 12.8 µM). For the same compound, the MIC [7] was 0.25 µg/mL (≈ 0.201 µM), the MIC [8] was 0.25 µg/mL (≈ 0.201 µM) and the MIC [9] was 4 µg/mL (≈ 3.21 µM). The MIC [10] was 0.5 µg/mL (≈ 0.401 µM), the MIC [11] was 4 µg/mL (≈ 3.21 µM) and the MIC [12] was 4 µg/mL (≈ 3.21 µM). It also gave an MIC [13] of 16 µg/mL (≈ 12.8 µM), an MIC [14] of 0.5 µg/mL (≈ 0.401 µM) and an MIC [15] of 0.5 µg/mL (≈ 0.401 µM).
In the case of CCCCCCCC(=O)N[C@@H](CCN)C(=O)N[C@H](C(=O)N[C@@H](CCN)C(=O)N[C@H]1CCNC(=O)[C@H]([C@@H](C)O)NC(=O)[C@H](CCN)NC(=O)[C@H](CCN)NC(=O)[C@H](CC(C)C)NC(=O)[C@@H](Cc2ccc(Br)cc2)NC(=O)[C@@H](CCN)NC1=O)[C@H](C)O, the Activity [16] is reported as “Active”.
For CCCCCCCC(=O)N[C@@H](CCN)C(=O)N[C@H](C(=O)N[C@@H](CCN)C(=O)N[C@H]1CCNC(=O)[C@H]([C@@H](C)O)NC(=O)[C@H](CCN)NC(=O)[C@H](CCN)NC(=O)[C@H](CC(C)C)NC(=O)[C@@H](Cc2ccc(Cl)cc2)NC(=O)[C@H](CCN)NC1=O)[C@@H](C)O (Octanoyl-[Dab]T[Dab][Dab][Dab][dPhe(4-Cl)]L[Dab][Dab]T; lactam 4-C), the MIC [1] was 16 µg/mL (≈ 13.1 µM), the MIC [2] was 16 µg/mL (≈ 13.1 µM) and the MIC [17] was 16 µg/mL (≈ 13.1 µM). The MIC [18] was 0.25 µg/mL (≈ 0.204 µM), the MIC [5] was < 0.125 µg/mL and the MIC [19] was 4 µg/mL (≈ 3.27 µM). The MIC [7] was 0.25 µg/mL (≈ 0.204 µM), the MIC [20] was 16 µg/mL (≈ 13.1 µM) and the MIC [11] was 2 µg/mL (≈ 1.63 µM). The MIC [15] was 0.25 µg/mL (≈ 0.204 µM).
Compound CCCCCCCC(=O)N[C@@H](CCN)C(=O)N[C@H](C(=O)N[C@@H](CCN)C(=O)N[C@H]1CCNC(=O)[C@H]([C@@H](C)O)NC(=O)[C@H](CCN)NC(=O)[C@H](CCN)NC(=O)[C@H](CC(C)C)NC(=O)[C@@H](Cc2ccc(Br)cc2)NC(=O)[C@H](CCN)NC1=O)[C@@H](C)O has an MIC [1] of 16 µg/mL (≈ 12.6 µM), an MIC [17] of 16 µg/mL (≈ 12.6 µM) and an MIC [3] of 2 µg/mL (≈ 1.58 µM). For the same compound, the Ratio [21] was 2, the MIC [22] was 1 µg/mL (≈ 0.788 µM) and the MIC [5] was 0.125 µg/mL (≈ 0.0986 µM). The MIC [19] was 2 µg/mL (≈ 1.58 µM), the MIC [7] was 0.125 µg/mL (≈ 0.0986 µM) and the MIC [8] was 2 µg/mL (≈ 1.58 µM). The MIC [9] was 2 µg/mL (≈ 1.58 µM), the MIC [10] was 0.125 µg/mL (≈ 0.0986 µM) and the MIC [20] was 2 µg/mL (≈ 1.58 µM). The MIC [11] was 2 µg/mL (≈ 1.58 µM), the MIC [12] was 8 µg/mL (≈ 6.31 µM) and the MIC [13] was 16 µg/mL (≈ 12.6 µM). The MIC [14] was < 0.125 µg/mL and the MIC [15] was 0.125 µg/mL (≈ 0.0986 µM).
Compound CC[C@H](C)[C@@H]1NC(=O)[C@@H](CC(C)C)NC(=O)[C@H](CCN)NC(=O)[C@@H](NC(=O)[C@@H](CO)NC(=O)[C@@H](NC(=O)[C@H](CCN)NC(=O)c2ccc(-c3ccccc3)cc2)[C@@H](C)O)CCNC(=O)[C@H](CC(C)C)NC(=O)[C@H](CCN)NC(=O)[C@H](CCN)NC1=O ({Benzoyl(4-Ph)}-[Dab]T[dS][Dab][Dab][dL]I[Dab][Dab]L; lactam 4-C) has an MIC [23] of 0.5 µg/mL (≈ 0.414 µM), an MIC [1] of 2 µg/mL (≈ 1.65 µM) and an MIC [2] of 2 µg/mL (≈ 1.65 µM). It also gave an MIC [17] of 1 µg/mL (≈ 0.827 µM), an MIC [3] of 2 µg/mL (≈ 1.65 µM) and a Ratio [21] of 2. The MIC [24] was 0.5 µg/mL (≈ 0.414 µM), the MIC [22] was 4 µg/mL (≈ 3.31 µM) and the MIC [18] was 1 µg/mL (≈ 0.827 µM). For the same compound, the MIC [5] was 2 µg/mL (≈ 1.65 µM), the MIC [19] was 2 µg/mL (≈ 1.65 µM) and the MIC [6] was 1 µg/mL (≈ 0.827 µM). It also gave an MIC [7] of 1 µg/mL (≈ 0.827 µM), an MIC [25] of 0.5 µg/mL (≈ 0.414 µM) and an MIC [8] of 4 µg/mL (≈ 3.31 µM). It also gave an MIC [9] of 4 µg/mL (≈ 3.31 µM), an MIC [10] of 2 µg/mL (≈ 1.65 µM) and an MIC [26] of 1 µg/mL (≈ 0.827 µM). The MIC [11] was 4 µg/mL (≈ 3.31 µM) and the Ratio [27] was 2.
